The text below walks through data of ChEMBL document CHEMBL1129089, “N-(substituted-phenyl) piperazines: antagonists with high binding and functional selectivity for dopamine D4 receptors” (Bioorg Med Chem Lett, 1996).

One assay has as its target T1, D(4) dopamine receptor (Homo sapiens, UniProt P21917).
T1 sequence (P21917 whole entry): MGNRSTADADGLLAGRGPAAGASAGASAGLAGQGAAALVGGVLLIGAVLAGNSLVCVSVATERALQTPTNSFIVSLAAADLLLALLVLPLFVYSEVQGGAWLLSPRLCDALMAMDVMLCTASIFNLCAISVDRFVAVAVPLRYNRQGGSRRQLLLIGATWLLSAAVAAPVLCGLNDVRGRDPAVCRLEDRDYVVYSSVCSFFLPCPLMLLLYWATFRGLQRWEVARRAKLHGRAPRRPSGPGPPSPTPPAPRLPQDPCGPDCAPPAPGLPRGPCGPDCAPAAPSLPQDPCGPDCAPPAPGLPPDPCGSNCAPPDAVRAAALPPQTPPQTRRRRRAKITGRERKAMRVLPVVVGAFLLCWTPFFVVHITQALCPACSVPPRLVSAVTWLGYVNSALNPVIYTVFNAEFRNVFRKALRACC
Description: Binding affinity at cloned human Dopamine receptor D4 expressed in HEK 293 cells, using [3H]nemonapride as radioligand. Type of assay: cell-based, HEK293.

Another assay addresses D(2) dopamine receptor (Homo sapiens, UniProt P14416). Description: Binding affinity at cloned human Dopamine receptor D2 expressed in CHO cells, using [125I]iodosulpiride as radioligand. The assay is classed as cell-based.
Assay [1] concerns the target Dopamine receptors; D2 & D4 (Homo sapiens) (UniProt P14416+P21917). Description: Selectivity of D2 receptor over D4 receptor. The assay is classed as protein assay.

The Ki is a dissociation constant, usually derived from enzyme kinetics or from competition with a known ligand. High values mean a looser hold on the target, low ones a stronger hold on the target.

Structures are written as SMILES.

Sequence of D(2) dopamine receptor (P14416 whole entry): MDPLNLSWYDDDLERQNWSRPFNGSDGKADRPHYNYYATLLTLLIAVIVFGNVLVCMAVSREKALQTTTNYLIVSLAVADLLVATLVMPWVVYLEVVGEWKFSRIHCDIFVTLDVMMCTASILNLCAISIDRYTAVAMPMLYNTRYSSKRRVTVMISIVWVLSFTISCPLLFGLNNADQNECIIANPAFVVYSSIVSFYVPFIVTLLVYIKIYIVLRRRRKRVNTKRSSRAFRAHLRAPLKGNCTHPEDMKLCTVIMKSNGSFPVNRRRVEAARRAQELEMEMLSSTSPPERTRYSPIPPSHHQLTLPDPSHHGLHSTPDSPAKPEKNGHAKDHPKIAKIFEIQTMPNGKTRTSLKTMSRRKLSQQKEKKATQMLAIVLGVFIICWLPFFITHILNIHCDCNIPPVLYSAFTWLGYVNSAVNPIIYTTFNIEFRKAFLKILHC
Sequence of Dopamine receptors; D2 & D4 (Homo sapiens) (P14416 whole entry, looked up, one chain of several): as the sequence (P14416 whole entry) above

Consider `CC(C)(C)C(=O)NCCCCCN1CCN(c2ccc(Cl)cc2)CC1`, for which the results for the Ki on D(4) dopamine receptor and on D(2) dopamine receptor were 126 nM and 398 nM, respectively. In addition, the Selectivity in assay [1] was 3.

As for `CCCC(C)(C)C(=O)NCCN1CCN(c2ccc(Cl)cc2)CC1`, the Ki was 7.94 nM at D(4) dopamine receptor and 2510 nM on D(2) dopamine receptor. For the same molecule, in assay [1], the Selectivity is 320.

Take `CC(C)(C)C(=O)NCCN1CCN(c2ccc(Cl)cc2)CC1`: the Ki on D(4) dopamine receptor is 25.1 nM; at D(2) dopamine receptor, 2510 nM. In assay [1], this molecule registered a Selectivity of 100.

`CC(C)(C)C(=O)NCCCCN1CCN(c2ccccc2)CC1`: the inhibition constant Ki at D(4) dopamine receptor is 316 nM; on D(2) dopamine receptor, 794 nM. In addition, the Selectivity in assay [1] was 3.

Take `CC1(C(=O)NCCCCN2CCN(c3ccc(Cl)cc3)CC2)CCCCC1`: the values for the Ki at D(4) dopamine receptor and on D(2) dopamine receptor were 10 nM and 1000 nM, respectively. The Selectivity in assay [1] stood at 100.

Regarding `CC(=O)NCCCCN1CCN(c2ccc(Cl)cc2)CC1`, the Ki is 1260 nM on D(4) dopamine receptor and 1580 nM on D(2) dopamine receptor. This molecule also showed a Selectivity in assay [1] of 1.

`CC(C)(C)C(=O)NCCCCN1CCN(c2cccc(Cl)c2)CC1`: the figures for the Ki at D(4) dopamine receptor and on D(2) dopamine receptor were 100 nM and 251 nM, respectively. In addition, the Selectivity in assay [1] worked out at 3.

As for `CC(C)(C)C(=O)NCCCCN1CCN(c2ccc(Cl)cc2)CC1`, the Ki at D(4) dopamine receptor was 12.6 nM; at D(2) dopamine receptor, 2510 nM. In assay [1], the Selectivity amounted to 200.

Regarding `CCC(C)(C)C(=O)NCCN1CCN(c2ccc(Cl)cc2)CC1`, at D(4) dopamine receptor, the Ki was 7.94 nM. In assay [1], this molecule came in with a Selectivity of 320.

For the molecule `CC(C)C(=O)NCCCCN1CCN(c2ccc(Cl)cc2)CC1`, the Ki at D(4) dopamine receptor is 126 nM; at D(2) dopamine receptor, 2000 nM. Further, the Selectivity in assay [1] was 16.

With `COc1ccc(N2CCN(CCCCNC(=O)C(C)(C)C)CC2)cc1`, the Ki on D(4) dopamine receptor was 316 nM; at D(2) dopamine receptor, > 10000 nM. In addition, the Selectivity in assay [1] is > 30.

On to `CCCC(C)(C)C(=O)NCCCCN1CCN(c2ccc(Cl)cc2)CC1`, for which the Ki at D(4) dopamine receptor was 12.6 nM; on D(2) dopamine receptor it was 1580 nM. Further, in assay [1], the Selectivity was determined as 125.

For the molecule `CC(C)(C)C(=O)NCCCCN1CCN(c2ccccc2Cl)CC1`, the Ki at D(4) dopamine receptor is 79.4 nM; at D(2) dopamine receptor, 63.1 nM. In assay [1], this molecule had a Selectivity of 1.

For the molecule `CCCCC(C)(C)C(=O)NCCN1CCN(c2ccc(Cl)cc2)CC1`, the Ki on D(4) dopamine receptor is 31.6 nM; on D(2) dopamine receptor, 1580 nM. The molecule further came in with a Selectivity in assay [1] of 50.

With `O=C(NCCCCN1CCN(c2ccc(Cl)cc2)CC1)c1ccccc1`, the inhibitory constant (Ki) on D(4) dopamine receptor is 158 nM; at D(2) dopamine receptor, 398 nM. In addition, in assay [1], the Selectivity stood at 3.

Consider `CC(C)(C)C(=O)NCCCCN1CCN(c2ccc(C(F)(F)F)cc2)CC1`, for which the Ki at D(4) dopamine receptor was 50.1 nM; at D(2) dopamine receptor, 3980 nM. In addition, the Selectivity in assay [1] came out at 80.

Turning to `CCC(C)(C)C(=O)NCCCCN1CCN(c2ccc(Cl)cc2)CC1`, the figures for the Ki at D(4) dopamine receptor and at D(2) dopamine receptor were 15.8 nM and 1000 nM, respectively. For the same molecule, the Selectivity in assay [1] amounted to 63.

Consider `COc1ccccc1N1CCN(CCCCNC(=O)C(C)(C)C)CC1`, for which the Ki is 12.6 nM on D(4) dopamine receptor and 20 nM at D(2) dopamine receptor. In assay [1], this molecule returned a Selectivity of 2.

In the case of `CC(C)(C)C(=O)NCCCCN1CCN2c3ccc(Cl)cc3CCC2C1` (stereo not drawn), the Ki was 63.1 nM on D(4) dopamine receptor and 398 nM at D(2) dopamine receptor.

`CC(C)(C)C(=O)NCCCCN1CCN(c2ccc(Br)cc2)CC1`: the Ki at D(4) dopamine receptor was 31.6 nM; at D(2) dopamine receptor it was 1580 nM. This molecule gave a Selectivity in assay [1] of 50.

On to `CC1(C(=O)NCCN2CCN(c3ccc(Cl)cc3)CC2)CCCCC1`, for which the Ki on D(4) dopamine receptor is 7.94 nM; at D(2) dopamine receptor, 794 nM. Besides, the Selectivity in assay [1] was 100.

Regarding `CC(C)(C)C(=O)NCCCN1CCN(c2ccc(Cl)cc2)CC1`, the values for the Ki at D(4) dopamine receptor and on D(2) dopamine receptor were 200 nM and > 10000 nM, respectively. For the same molecule, the Selectivity in assay [1] was > 50.

On to `CC1CN(CCCCNC(=O)C(C)(C)C)CCN1c1ccc(Cl)cc1` (stereo not drawn), for which the Ki on D(4) dopamine receptor was 63.1 nM; on D(2) dopamine receptor, 1580 nM.

Take `O=C(NCCN1CCN(c2ccc(Cl)cc2)CC1)C12CC3CC(CC(C3)C1)C2`: the figures for the Ki on D(4) dopamine receptor and on D(2) dopamine receptor were 5.01 nM and 398 nM, respectively. The Selectivity in assay [1] came to 80.

As for `COc1cc(Cl)ccc1N1CCN(CCCCNC(=O)C(C)(C)C)CC1`, the Ki was 15.8 nM on D(4) dopamine receptor and 158 nM on D(2) dopamine receptor. Further, in assay [1], the Selectivity was found to be 10.

As to `O=C(NCCCCN1CCN(c2ccc(Cl)cc2)CC1)C12CC3CC(CC(C3)C1)C2`, the values for the Ki on D(4) dopamine receptor and at D(2) dopamine receptor were 20 nM and 631 nM, respectively. Besides, the Selectivity in assay [1] turned out to be 30.

Turning to `CC(C)(C)C(=O)NCCCCN1CCN(c2ccc(F)cc2)CC1`, the inhibition constant Ki at D(4) dopamine receptor is 126 nM; at D(2) dopamine receptor it was 2000 nM. Moreover, the Selectivity in assay [1] amounted to 15.
